The target of the assay is O-acyl isopeptide of Aβ (Homo sapiens, UniProt P05067). Kind of assay: Aβ aggregation inhibition test (thioflavin T fluorescence). It counts as biochemical. To be noted: inhibitor 30 μM, Aβ O-acyl isopeptide 10 μM, 0.1 M phosphate buffer pH 7.4, 1% DMSO, 37° C.; DMSO control taken as 100.
Sequence of O-acyl isopeptide of Aβ (P05067 672-713 limits assumed): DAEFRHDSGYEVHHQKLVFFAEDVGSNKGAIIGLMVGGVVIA
Procedure: An aggregation inhibitory peptide solution (DMSO solution) was added to a 0.1 M phosphate buffer (pH 7.4, 50 μL) containing O-acyl isopeptide of Aβ (10 μM) (final concentration of inhibitor: 30 μM, 1% DMSO), and the resultant mixture was incubated at 37° C. for a specific period of time. Thereafter, a portion of the reaction mixture (10 μL) was added to a mixture of thioflavin T solution (50 μM thioflavin T, 10 μL) and 50 mM glycine-NaOH buffer (pH 8.5, 396 μL). Immediately thereafter, they were mixed together, and the fluorescence intensity of thioflavin T was measured at an excitation wavelength of 440 nm and an emission wavelength of 480 nm.
As to “cyclo-D-[Ala-Leu-Val-Phe-Phe] (ALVFF; HELM PEPTIDE1{[dA].[dL].[dV].[dF].[dF]}$PEPTIDE1,PEPTIDE1,1:R1-5:R2$$$V2.0; SMILES CC(C)C[C@H]1NC(=O)[C@@H](C)NC(=O)[C@@H](Cc2ccccc2)NC(=O)[C@@H](Cc2ccccc2)NC(=O)[C@@H](C(C)C)NC1=O) [Compound 3]”, the “Aggregation inhibitory activity ratio (the lower the ratio, the higher the inhibitory activity)” value came out at 66.
Next, “cyclo-D-[Lys-Ala-Val-Phe-Phe] [Compound 4]”: 88.
Next, “cyclo-D-[Lys-Leu-Ala-Phe-Phe] [Compound 5]”: 82.
As to “cyclo-D-[Lys-Leu-Val-(4-(2-Py)-Ph)Ala-Phe] [Compound 13]”, the “Aggregation inhibitory activity ratio (the lower the ratio, the higher the inhibitory activity)” value is given as 81.
In the case of “cyclo-D-[Lys-Leu-Val-(4-(3-Py)-Ph)Ala-Phe] [Compound 14]” it was 49.
Next, “cyclo-D-[Lys-Leu-Val-(4-(3-phenol)-Ph)Ala-Phe] [Compound 17]”: 39; “cyclo-D-[Lys-Leu-Val-(4-(4-Py)-Ph)Ala-Phe] [Compound 15]”: 57.
In the case of “cyclo-D-[Lys-Leu-Val-(4-(5-pyrimidine)-Ph)Ala-Phe] [Compound 16]” it was 90; in that of “cyclo-D-[Lys-Leu-Val-Ala-Phe] [Compound 6]”, 106; in that of “cyclo-D-[Lys-Leu-Val-Phe(βPh)-Phe] [Compound 8]”, 28.
For the substance “cyclo-D-[Lys-Leu-Val-Phe-Ala] [Compound 7]”, the “Aggregation inhibitory activity ratio (the lower the ratio, the higher the inhibitory activity)” value stood at 104.

Values taken from US9745349B2, “Cyclic peptide and pharmaceutical product containing same” (JAPAN SCIENCE AND TECHNOLOGY AGENCY, priority 2012, dated 2017).
